Experimental data reported in PMC9804387, “Substrate Peptidomimetic Inhibitors of P. falciparum Plasmepsin X with Potent Antimalarial Activity” (Chemmedchem, 2022).
pEC50, pIC50: −log10 of the molar value. Values joined by “and” are separate entries in the source; they are usually repeats but may differ in a detail not shown here. Equal values may be shown once. Where a name gives a salt, the structure may show the parent alone. Read-outs that look alike come from different tables or passages of the source.

Experiments:
recombinant Pf PMX = biological target: T1, recombinant Pf PMX (Plasmodium falciparum, UniProt Q8IAS0); test: PMX biochemical FRET assay (Rh2N fluorogenic substrate cleavage); conditions: for pIC50: 37 °C
T1 construct: made in house
T1 sequence (Q8IAS0 222-573): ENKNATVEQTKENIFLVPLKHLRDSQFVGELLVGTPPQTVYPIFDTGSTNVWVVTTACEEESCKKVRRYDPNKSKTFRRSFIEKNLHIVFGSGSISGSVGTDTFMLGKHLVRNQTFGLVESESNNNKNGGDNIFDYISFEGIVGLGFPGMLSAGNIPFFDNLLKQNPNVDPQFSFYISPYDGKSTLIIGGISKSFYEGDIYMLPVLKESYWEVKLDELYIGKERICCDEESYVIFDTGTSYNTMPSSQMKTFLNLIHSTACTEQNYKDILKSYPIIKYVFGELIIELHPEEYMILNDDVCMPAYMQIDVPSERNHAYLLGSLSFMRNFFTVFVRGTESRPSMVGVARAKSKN
Protocol: FRET Protease Assays. FRET protease assays were performed as previously described.[19, 20, 27, 28] Briefly, ten‐point 1 : 3‐fold dilution series of the compounds were prepared in 384‐well black low volume assay plates (Greiner) using an Echo555 (Labcyte). 10 mM compound stocks were transferred into assay plates such that the starting concentration was 90 μM (Pv PMV assays), 11.25 μM (renin, cathepsin D and BACE‐1 assays) or 100 nM and 10 μM (Pf PMX and Pf PMIX assays). All wells were backfilled to 200 nL DMSO such that the DMSO concentration remained constant across the assay plates (1 % final). All compound potency assays were conducted in 20 μL total volume. For each assay, 10 μL of recombinant enzymes in respective assay buffers (Table S2) were dispensed into compound containing assay plates using a Multidrop‐Combi dispenser and allowed to incubate for 15 min. Recombinant Pf PMX, Pf PMIX and Pv PMV were expressed as previously described,[23, 27, 28] and recombinant human aspartyl proteases were purchased commercially. 10 μL of the fluorogenic peptide substrates incubated at 37 °C for the duration and conditions noted in Table S2. Samples were excited at 340 nm and fluorescence emission measured at 492 nm using an Envision fluorescence plate reader (Perkin‐Elmer). The 0 % inhibition control contained DMSO alone (1 % final) and the 100 % inhibition control was in the absence of enzyme. […]
(§1) Table S2 . P rotease FRET assay conditions.
(§2) PMX as sa y PMIX PM V assay Renin assay Cathepsin D assay BA CE-1 assay E nzy me prot e as e 0.25 nM pro te a se 6 nM prot e as e q ua nti ty 0.1 nM pro t ea se 1.5 nM pro t ea se 2.5 nM pro t ea se 3 nM (Pro te os #R-001) ( Athe ns Re sea rc h (Sigma #S4195) […]
(§3) 25mM so di um acetate, 100 mM 25 mM M E S, 25 m M 50 mM Tr is, 100 mM 100 mM so di u m 20 mM so dium Buffer acetate, 0.005% sodium chloride and Tris-HCl, 0.01% N aC l, 0. 1% Bri j-35, acetate 0.02% scetate, 0.05% […]
(§4) Sub str at e DABCYL- ( DA BC YL ) - DABCYL- DABCYL-(γ- Ab u) - E[E(EDANS)]KPIL […]

in vitro = assay type: cell-based; conditions: human
Protocol: HepG2 Cytotoxicity Assay. HepG2 cytotoxicity assays were performed as previously described.[41] Briefly, human hepatocyte HepG2 cells were cultured in DMEM supplemented with 10 % FCS at 37 °C and 5 % CO2 in a humidified incubator. Cells were seeded at 1000 cells/well in 50 μL in 384‐well plates (Grenier) and compounds incubated in ten‐point 1 : 2‐fold dilution series for 48 h. Cytotoxicity was determined using Cell Titer‐Glo (Promega), normalized to DMSO alone controls (100 % viability) and control compound Bortezomib (0 % viability at 10 μM). CC50 values were calculated by GraphPad Prism (8.0.2) software using a nonlinear regression four‐parameter fit analysis with the sigmoidal dose response (variable slope).

[1] = tested on: P. falciparum (Pf) 3D7 parasites; test: P. falciparum LDH viability assay; assay type: cell-based; conditions: for fold decrease in parasite activity compared to PMX inhibition: Pf 3D7 EC50 versus PMX IC50; for pEC50: Plasmodium falciparum, 3D7, 72 h, LDH activity, 72 h at 37 °C, mean and SD of 3 independent experiments
Protocol: P. falciparum LDH Viability Assay. P. falciparum LDH viability assays were performed as previously described.[40] Briefly, a ten‐point 1 : 3‐fold dilution series of the compounds were pre‐dispensed in 384‐well assay plates (Grenier), and RPMI/AlbuMAX growth media inoculated with synchronized ring stage P. falciparum parasites. 10 mM compound stocks were transferred into the assay plates such that the starting concentration was 10 μM. Plates were incubated for 72 h and then frozen at −80 °C overnight. Lactate dehydrogenase (LDH) activity was quantified with APAD by measuring absorbance of NBT at 650 nm. Data were normalized to percent growth inhibition using the positive control of 0.1 % DMSO alone and the negative control of 100 nM chloroquine. Half‐maximal effective concentration (EC50) values were calculated by GraphPad Prism (8.0.2) software using a nonlinear regression four‐parameter fit analysis using a sigmoidal dose response (variable slope).

recombinant Pv PMV = biological target: T2, recombinant Pv PMV (Plasmodium vivax, UniProt A5K302); test: PMV FRET protease assay; assay type: biochemical
T2 construct: made in house
T2 sequence (A5K302 35-536): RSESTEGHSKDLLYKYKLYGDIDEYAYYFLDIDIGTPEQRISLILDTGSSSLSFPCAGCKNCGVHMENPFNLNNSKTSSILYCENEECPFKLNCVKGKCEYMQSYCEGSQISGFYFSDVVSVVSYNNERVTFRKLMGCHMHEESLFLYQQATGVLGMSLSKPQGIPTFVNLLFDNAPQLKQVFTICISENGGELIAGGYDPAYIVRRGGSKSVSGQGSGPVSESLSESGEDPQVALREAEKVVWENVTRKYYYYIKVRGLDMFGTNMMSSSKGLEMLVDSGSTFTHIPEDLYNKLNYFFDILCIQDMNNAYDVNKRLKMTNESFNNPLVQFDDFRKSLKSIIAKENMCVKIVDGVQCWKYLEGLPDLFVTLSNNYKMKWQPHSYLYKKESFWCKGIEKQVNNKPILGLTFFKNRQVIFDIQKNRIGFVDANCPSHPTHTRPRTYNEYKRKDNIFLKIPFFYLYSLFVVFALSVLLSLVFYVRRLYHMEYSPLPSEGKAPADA
Protocol: (§5) FRET Protease Assays. FRET protease assays were performed as previously described.[19, 20, 27, 28] Briefly, ten‐point 1 : 3‐fold dilution series of the compounds were prepared in 384‐well black low volume assay plates (Greiner) using an Echo555 (Labcyte). 10 mM compound stocks were transferred into assay plates such that the starting concentration was 90 μM (Pv PMV assays), 11.25 μM (renin, cathepsin D and BACE‐1 assays) or 100 nM and 10 μM (Pf PMX and Pf PMIX assays). All wells were backfilled to 200 nL DMSO such that the DMSO concentration remained constant across the assay plates (1 % final). All compound potency assays were conducted in 20 μL total volume. For each assay, 10 μL of recombinant enzymes in respective assay buffers (Table S2) were dispensed into compound containing assay plates using a Multidrop‐Combi dispenser and allowed to incubate for 15 min. Recombinant Pf PMX, Pf PMIX and Pv PMV were expressed as previously described,[23, 27, 28] and recombinant human aspartyl proteases were purchased commercially. 10 μL of the fluorogenic peptide substrates incubated at 37 °C for the duration and conditions noted in Table S2. Samples were excited at 340 nm and fluorescence emission measured at 492 nm using an Envision fluorescence plate reader (Perkin‐Elmer). The 0 % inhibition control contained DMSO alone (1 % final) and the 100 % inhibition control was in the absence of enzyme. Half‐maximal inhibitory concentration (IC50) values were calculated by GraphPad Prism (8.0.2) software using a nonlinear regression four‐parameter fit analysis using a sigmoidal dose response (variable slope).
as §1, §2, §3, §4

recombinant Pf PMIX = biological target: T3, recombinant Pf PMIX (Plasmodium falciparum, UniProt Q8ILG2); test: PMIX FRET protease assay; assay type: biochemical, P. falciparum; conditions: mean and SD of 4 replicate FRET experiments, 37 °C
T3 construct: made in house
T3 sequence (Q8ILG2 whole entry): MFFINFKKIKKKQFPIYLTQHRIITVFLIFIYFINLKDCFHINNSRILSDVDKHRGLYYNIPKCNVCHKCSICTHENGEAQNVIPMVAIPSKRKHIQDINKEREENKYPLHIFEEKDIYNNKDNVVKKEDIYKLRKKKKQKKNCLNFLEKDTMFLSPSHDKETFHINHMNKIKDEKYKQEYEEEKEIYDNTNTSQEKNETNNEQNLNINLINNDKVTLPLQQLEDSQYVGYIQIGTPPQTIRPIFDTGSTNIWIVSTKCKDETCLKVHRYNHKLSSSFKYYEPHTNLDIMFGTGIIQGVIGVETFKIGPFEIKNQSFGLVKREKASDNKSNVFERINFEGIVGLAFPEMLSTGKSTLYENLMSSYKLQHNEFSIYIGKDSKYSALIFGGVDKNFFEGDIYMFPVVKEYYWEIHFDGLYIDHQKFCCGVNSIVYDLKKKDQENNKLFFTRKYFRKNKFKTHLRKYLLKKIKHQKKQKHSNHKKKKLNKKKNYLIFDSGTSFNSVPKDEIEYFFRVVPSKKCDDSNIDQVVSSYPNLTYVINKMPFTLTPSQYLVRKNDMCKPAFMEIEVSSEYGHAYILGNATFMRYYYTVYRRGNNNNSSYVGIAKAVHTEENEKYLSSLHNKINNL
Protocol: as §5, §1, §2, §3, §4

renin = biological target: T4, renin (Homo sapiens, UniProt P00797); test: Renin FRET protease assay; assay type: biochemical; conditions: mean and SD of 4 replicate FRET experiments, 37 °C; highest concentration tested 11 μM
T4 construct: purchased Proteos R-001
T4 sequence (P00797 67-406): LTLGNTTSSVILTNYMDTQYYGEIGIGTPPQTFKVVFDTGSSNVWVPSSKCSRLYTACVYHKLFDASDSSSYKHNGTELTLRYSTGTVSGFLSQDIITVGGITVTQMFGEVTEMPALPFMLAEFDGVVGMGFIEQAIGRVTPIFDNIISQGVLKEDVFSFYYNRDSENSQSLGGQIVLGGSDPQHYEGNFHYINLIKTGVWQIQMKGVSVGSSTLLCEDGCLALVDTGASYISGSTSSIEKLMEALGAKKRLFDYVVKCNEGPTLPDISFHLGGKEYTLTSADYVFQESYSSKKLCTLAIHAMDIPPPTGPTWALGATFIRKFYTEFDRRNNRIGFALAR

cathepsin D = biological target: T5, cathepsin D (Homo sapiens, UniProt P07339); test: Cathepsin D FRET protease assay; assay type: biochemical; conditions: mean and SD of 4 replicate FRET experiments, 37 °C; highest concentration tested 11 μM
T5 construct: purchased Athens Research 16-12-030104
T5 sequence (P07339 65-412): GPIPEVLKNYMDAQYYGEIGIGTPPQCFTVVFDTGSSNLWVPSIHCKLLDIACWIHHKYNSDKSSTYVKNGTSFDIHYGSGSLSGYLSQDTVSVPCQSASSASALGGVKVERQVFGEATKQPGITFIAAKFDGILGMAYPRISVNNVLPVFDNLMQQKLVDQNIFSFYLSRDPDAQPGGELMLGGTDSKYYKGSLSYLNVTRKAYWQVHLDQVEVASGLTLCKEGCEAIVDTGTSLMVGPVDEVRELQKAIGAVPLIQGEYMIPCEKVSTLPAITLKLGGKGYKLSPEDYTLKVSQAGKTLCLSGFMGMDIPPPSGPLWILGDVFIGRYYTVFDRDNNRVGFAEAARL

BACE‐1 = biological target: T6, BACE‐1 (Homo sapiens, UniProt P56817); test: BACE-1 FRET protease assay; assay type: biochemical; conditions: mean and SD of 4 replicate FRET experiments, 37 °C; highest concentration tested 11 μM
T6 construct: purchased Sigma S4195
T6 sequence (P56817 46-460 limits assumed): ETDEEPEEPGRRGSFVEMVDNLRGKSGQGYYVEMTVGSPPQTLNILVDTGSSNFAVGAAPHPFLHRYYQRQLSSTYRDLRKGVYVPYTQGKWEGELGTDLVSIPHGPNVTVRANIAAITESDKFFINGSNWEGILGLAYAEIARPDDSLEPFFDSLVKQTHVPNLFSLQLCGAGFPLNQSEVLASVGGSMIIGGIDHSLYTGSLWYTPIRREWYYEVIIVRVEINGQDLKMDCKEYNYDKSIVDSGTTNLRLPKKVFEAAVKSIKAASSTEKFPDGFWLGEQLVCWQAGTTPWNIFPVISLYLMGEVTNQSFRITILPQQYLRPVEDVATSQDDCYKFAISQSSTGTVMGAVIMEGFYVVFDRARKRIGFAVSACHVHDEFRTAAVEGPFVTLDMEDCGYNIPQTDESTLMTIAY

[2] = recombinant PMX, fluorogenic substrate (Rh2N) cleavage, 4 h, mean and SD of 4 replicates (Tables 1, 2)
[3] = Table 3, mean and SD of 4 replicate FRET experiments

SMILES	pIC50 (recombinant Pf PMX; [2])	pEC50 [1]	fold less active against PMX than the L‐configured Ser (38) counterpart (recombinant Pf PMX; PMX IC50 compared with 38)	CC50 at 48 h (in vitro)	fold decrease in parasite activity compared to PMX inhibition [1]	pIC50 (recombinant Pv PMV; Table S2, positive control activity in assay, 90 min, read-out: Positive control IC50 in PMV assay)	pIC50 (recombinant Pf PMX; [3])	pIC50 (recombinant Pf PMIX)	pIC50 (renin)	pIC50 (recombinant Pv PMV)	pIC50 (cathepsin D)	pIC50 (BACE‐1)
CC(=O)NC(CO)C(=O)NC(CO)C(=O)NC(Cc1ccccc1)C(O)CNC(C)c1ccccc1 (stereo not drawn) [Compd 28, Ac‐Ser‐Ser‐Phe‐HEA‐Bn(CH3)⋅TFA]	6.24	< 4.96		> 40000 nM	approximately 10 fold							
CC(C)C[C@H](NC(=O)[C@@H](NC(=O)[C@H](CCON=C(N)N)NC(=O)OCc1ccccc1)C(C)C)[C@@H](O)CC(=O)NCCc1ccccc1 [WEHI-842, reference compound]						7.77						
CC(C)CC(NC(=O)C(Cc1ccccc1)NC(=O)C(CO)NC(=O)OCc1ccccc1)C(O)CNC(C)c1ccccc1 (stereo not drawn) [Compd 23, Cbz‐Ser‐Phe‐Leu‐HEA‐Bn(CH3)⋅TFA]	< 6.00 and 5.44	5.22		30000 nM								
CC(=O)NC(CC(N)=O)C(=O)NC(CO)C(=O)NC(Cc1ccccc1)C(O)CNC(C)c1ccccc1 (stereo not drawn) [Compd 27, Ac‐Asn‐Ser‐Phe‐HEA‐Bn(CH3)⋅TFA]	6.24	5.17		> 40000 nM	approximately 10 fold							
CC(C)CC(NC(=O)C(CO)NC(=O)OCc1ccccc1)C(=O)NC(Cc1ccccc1)C(O)CNC(C)c1ccccc1 (stereo not drawn) [Compd 24, Cbz‐Ser‐Leu‐Phe‐HEA‐Bn(CH3)⋅TFA]	> 6.00 and 6.70	5.80		> 40000 nM								
CC(C)[C@H](NC(=O)OCc1ccccc1)C(=O)N[C@@H](Cc1ccccc1)[C@H](O)CN[C@H](C)c1ccccc1 [Compd 34, Cbz‐Val‐Phe‐HEA‐Bn(CH3)]	8.00	7.30		13000 nM			8.00	5.16	< 4.96	< 4.05	< 4.96	< 4.96
CC(C)CC(NC(=O)C(CO)NC(=O)OCc1ccccc1)C(=O)NC(CC(C)C)C(O)CNC(C)c1ccccc1 (stereo not drawn) [Compd 25, Cbz‐Ser‐Leu‐Leu‐HEA‐Bn(CH3)⋅TFA]	< 6.00 and 5.46	< 4.96		> 40000 nM								
CCC(C)[C@H](NC(=O)OCc1ccccc1)C(=O)N[C@@H](Cc1ccccc1)[C@H](O)CN[C@H](C)c1ccccc1 (stereo partly drawn) [Compd 37, Cbz‐Ile‐Phe‐HEA‐Bn(CH3)]	7.70	6.85		> 40000 nM				4.83	< 4.96	< 4.05	6.70	< 4.96
CC(=O)N[C@@H](CO)C(=O)N[C@@H](Cc1ccccc1)[C@H](O)CN[C@H](C)c1ccccc1 [Compd 39, Ac‐Ser‐Phe‐HEA‐Bn(CH3)⋅TFA]	5.48	5.21		> 40000 nM								
CCC(C)C(NC(C)=O)C(=O)NC(CO)C(=O)NC(Cc1ccccc1)C(O)CNC(C)c1ccccc1 (stereo not drawn) [Compd 26, Ac‐Ile‐Ser‐Phe‐HEA‐Bn(CH3)⋅TFA]	8.00	6.72		> 40000 nM			8.00	5.57	< 4.96	< 4.05	< 4.96	5.54
CC(C)C[C@H](NC(=O)[C@H](CO)NC(=O)OCc1ccccc1)[C@H](O)CN[C@H](C)c1ccccc1 [Compd 41, Cbz‐Ser‐Leu‐HEA‐Bn(CH3)⋅TFA]	5.74	5.49		> 40000 nM								

Continued by rising pEC50 [1], values first:

pIC50 (recombinant Pf PMX; [2])	pEC50 [1]	fold less active against PMX than the L‐configured Ser (38) counterpart (recombinant Pf PMX; PMX IC50 compared with 38)	SMILES	CC50 at 48 h (in vitro)	fold decrease in parasite activity compared to PMX inhibition [1]	pIC50 (recombinant Pv PMV; Table S2, positive control activity in assay, 90 min, read-out: Positive control IC50 in PMV assay)	pIC50 (recombinant Pf PMX; [3])	pIC50 (recombinant Pf PMIX)	pIC50 (renin)	pIC50 (recombinant Pv PMV)	pIC50 (cathepsin D)	pIC50 (BACE‐1)
> 6.00 and 6.72 and 6.77	5.85		CC(NCC(O)C(Cc1ccccc1)NC(=O)C(Cc1ccccc1)NC(=O)C(CO)NC(=O)OCc1ccccc1)c1ccccc1 (stereo not drawn) [Compd 22, Cbz‐Ser‐Phe‐Phe‐HEA‐Bn(CH3)⋅TFA]	> 40000 nM								
7.15	6.19		C[C@@H](NC[C@@H](O)[C@H](Cc1ccccc1)NC(=O)[C@H](Cc1ccccc1)NC(=O)OCc1ccccc1)c1ccccc1 [Compd 36, Cbz‐Phe‐Phe‐HEA‐Bn(CH3)]	> 40000 nM	approximately 6 fold							
6.74	6.22		CC(C)C[C@H](NC(=O)OCc1ccccc1)C(=O)N[C@@H](Cc1ccccc1)[C@H](O)CN[C@H](C)c1ccccc1 [Compd 35, Cbz‐Leu‐Phe‐HEA‐Bn(CH3)]	18000 nM	approximately 6 fold							
6.48	6.24	7 fold	C[C@@H](NC[C@@H](O)[C@H](Cc1ccccc1)NC(=O)[C@@H](CO)NC(=O)OCc1ccccc1)c1ccccc1 [Compd 40, Cbz‐D‐Ser‐Phe‐HEA‐Bn(CH3)⋅TFA]	> 40000 nM								
6.80	6.59		CC(O)[C@H](NC(=O)OCc1ccccc1)C(=O)N[C@@H](Cc1ccccc1)[C@H](O)CN[C@H](C)c1ccccc1 (stereo partly drawn) [Compd 42, Cbz‐Thr‐Phe‐HEA‐Bn(CH3)⋅TFA]	> 40000 nM	2 fold							
